Data published in patent US8574831B2, “Mutational profiles in HIV-1 reverse transcriptase correlated with phenotypic drug resistance” (Virco N.V., priority 2000, dated 2013).

Test system: HIV with mutations in the HIV protease sequence
Experiment: Phenotypic fold resistance to protease inhibitors, protease mutations 84A/84L/84C/54M/54L/54V in a background (Examples 8-13)
Type: cell-based, HIV-1
Description: As is the case with the genotyping assays, the recombinant virus assay starts with the amplification of viral target sequences by means of PCR. The amplicons are incorporated into a proviral laboratory clone with sequences homologous to those present in the amplicon deleted. This generates a stock of chimeric viruses. The viruses are tested for their ability to grow in the presence of different concentrations of drugs. Results are obtained by calculating IC50 values for each inhibitor and by reporting the results as IC50 values, expressed in μM concentrations, or by computing the ratio of the IC50 values found for the chimeric virus to the IC50 values found for a wild type susceptible laboratory virus tested in parallel. In the latter case, resistance is expressed as “fold-resistance” compared to a wild-type susceptible HIV-1 strain. In order to meet the need for high-volume testing and a short turn-around time for an individual test, the latest generation of phenotyping assays has undergone further modifications. The use of reporter gene systems for susceptibility testing allows the implementation of laboratory automation and standardization. See Pauwels, et al., J. Virol. Methods 20, 309-321 (1998); Paulous, S., et al., International Workshop on HIV Drug Resistance, Treatment Strategies and Eradication, St. Petersburg, Fla., USA. Abstr. 46 (1997); and Deeks, S. G., et al., 2nd International Workshop on HIV Drug Resistance and Treatment Strategies, Lake Maggiore, Italy. Abstr. 53 (1998).
The ANTIVIROGRAM® assay (Virco) (WO 97/27480) is based on homologous recombination of patient derived HIV-1 gag/PR/RT sequences into a proviral HIV-1 clone correspondingly deleted for the gag/PR/RT sequences. See Pauwels, et al., J. Virol. Methods 20, 309-321 (1998). A similar assay (Phenosense ViroLogic) is based on enzymatic ligation of patient-derived PR/RT sequences into a correspondingly deleted proviral vector carrying an indicator gene, luciferase, inserted in the deleted HIV-1 envelope gene. See Deeks, S. G., et al., 2nd International Workshop on HIV Drug Resistance and Treatment Strategies, Lake Maggiore, Italy. Abstr. 53 (1998). Hertogs et al. Antimicrob. Agents Chemother. 44(3) 568-573 (2000) the disclosures of which are herein incorporated by reference.
The methods of monitoring HIV-1 drug resistance, may also be used in combination with phenotypic drug resistance testing of viral isolates. For example, in one embodiment, a phenotypic test is utilized that is based upon the construction of chimeric HIV-1 strains composed of the protease (PR) and reverse transcriptase (RT) gene sequences which are isolated and amplified from the patient viral RNA. These strains may subsequently be recombined inside CD4+ T cells with a standard laboratory isogenic (HXB2) HIV-1 DNA construct from which the PR/RT gene sequences were deleted. The recombinant strains may then be grown in the presence of the above-mentioned antiviral drugs and the susceptibility of the viral isolates may be expressed as fold-change value of the IC50 of the drug on the patient isolates over the IC50 of the drug on a wild-type laboratory reference strain.

Cc1c(O)cccc1C(=O)N[C@@H](CSc1ccccc1)[C@H](O)CN1C[C@H]2CCCC[C@H]2C[C@H]1C(=O)NC(C)(C)C [Nelfinavir, nelfinavir] was tested, and the “mean fold increase in resistance” value (Table 9 #1, protease genotype WT) was 0.7 fold, the “mean fold increase in resistance” value (Table 9 #2, protease genotype 10I) was 1 fold and the “mean fold increase in resistance” value (Table 9 #3, protease genotype 46I) was 1.5 fold. For the same molecule, the “mean fold increase in resistance” value (Table 9 #4, protease genotype 46I + 84V) was 5.6 fold, the “mean fold increase in resistance” value (Table 9 #5, protease genotype 46I + 84A) was 61.9 fold and the “mean fold increase in resistance” value (Table 9 #6, protease genotype 10I + 46I) was 0.8 fold. For the same molecule, the “mean fold increase in resistance” value (Table 9 #7, protease genotype 10I + 46I + 84V) was 3.1 fold, the “mean fold increase in resistance” value (Table 9 #8, protease genotype 10I + 46I + 84A) was 43.9 fold and the “mean fold increase in resistance” value (Table 9 #9, protease genotype 10L/I + 46I + 84A) was 56.2 fold. The “mean fold increase in resistance” value (Table 9 #10, protease genotype 10I + 46I + 84A) was 36.9 fold, the “mean fold increase in resistance” value (Table 9 #11, protease genotype 46I + 71V) was 1 fold and the “mean fold increase in resistance” value (Table 9 #12, protease genotype 46I + 71V + 84V/I) was 0.7 fold. The “mean fold increase in resistance” value (Table 9 #13, protease genotype 46I + 71V + 84A) was 59.9 fold, the “mean fold increase in resistance” value (Table 9 #14, protease genotype 10F + 46I + 71V) was 45.2 fold and the “mean fold increase in resistance” value (Table 9 #15, protease genotype 10I + 46I + 71V + 84V) was 57.1 fold. For the same molecule, the “mean fold increase in resistance” value (Table 9 #16, protease genotype 10I + 46I + 71V + 84A) was 54.9 fold, the “mean fold increase in resistance” value (Table 9 #17, protease genotype 10V + 46I + 71T + 84A) was 51.2 fold and the “mean fold increase in resistance” value (Table 9 #18, protease genotype 10I + 46I + 71V + 77I) was 6.1 fold. The “mean fold increase in resistance” value (Table 9 #19, protease genotype 10I + 46I + 71V + 77I + 84V) was 2.8 fold, the “mean fold increase in resistance” value (Table 9 #20, protease genotype 10I + 46I + 71V + 77I + 84A) was 68.6 fold and the “mean fold increase in resistance” value (Table 9 #21, protease genotype 10I + 33L/I + 46I + 71V + 77V/I + 84A) was 63.1 fold. For the same molecule, the “mean fold increase in resistance” value (Table 10 #1, protease genotype 10I + 36I + 71V) was 1.5 fold, the “mean fold increase in resistance” value (Table 10 #2, protease genotype 10I + 36I + 71I + 84V) was 0.8 fold and the “mean fold increase in resistance” value (Table 10 #3, protease genotype 10I + 36I + 71I + 84L) was 39.4 fold. The “mean fold increase in resistance” value (Table 11 #1, protease genotype WT) was 0.7 fold, the “mean fold increase in resistance” value (Table 11 #2, protease genotype 84V) was 0.9 fold and the “mean fold increase in resistance” value (Table 11 #3, protease genotype 84C) was 51.2 fold. For the same molecule, the “mean fold increase in resistance” value (Table 11 #4, protease genotype 10I) was 1.0 fold, the “mean fold increase in resistance” value (Table 11 #5, protease genotype 10I + 84V) was 2.0 fold and the “mean fold increase in resistance” value (Table 11 #6, protease genotype 10I + 84C) was 61.9 fold. The “mean fold increase in resistance” value (Table 11 #7, protease genotype 77I) was 0.9 fold, the “mean fold increase in resistance” value (Table 11 #8, protease genotype 77I + 84V) was 2.8 fold and the “mean fold increase in resistance” value (Table 11 #9, protease genotype 77I + 84C) was 61.9 fold. The “mean fold increase in resistance” value (Table 11 #10, protease genotype 77I + 84C) was 38.2 fold, the “mean fold increase in resistance” value (Table 11 #11, protease genotype 10I + 24I + 36I + 46I + 71V + 84C) was 51.7 fold and the “Fold change in IC50” value (Table 12, V19263, genotype 77I) was 0.9 fold. The “Fold change in IC50” value (Table 12, V20160, genotype WT) was 0.7 fold, the “Fold change in IC50” value (Table 12, V021667, genotype 10I) was 1.0 fold and the “Fold change in IC50” value (Table 12, V030496, genotype 10I + 77I) was 0.7 fold. For the same molecule, the “Fold change in IC50” value (Table 12, V048869, genotype 10I + 54M + 77I + 90M) was 28.5 fold, the “Fold change in IC50” value (Table 12, V048872, genotype 33F + 54M + 77I + 90M) was 7.4 fold and the “Fold change in IC50” value (Table 12, V048873, genotype 33F + 54M + 77I + 90M) was 7.7 fold. The “Fold change in IC50” value (Table 12, V048877, genotype 10I + 33F + 77I + 90M) was 9.4 fold, the “Fold change in IC50” value (Table 12, V048878, genotype 10I + 33F + 54M + 71V + 77I + 90M) was 7.3 fold and the “Fold change in IC50” value (Table 12, V048879, genotype 10I + 33F + 54M + 71V + 77I + 90M) was 45.7 fold. For the same molecule, the “Fold change in IC50” value (Table 12, V048880, genotype 10I + 33F + 77I + 90M) was 4.9 fold, the “Fold change in IC50” value (Table 12, V052940, genotype 71V) was 0.6 fold and the “Fold change in IC50” value (Table 12, V052942, genotype 10I + 71V) was 0.9 fold. The “Fold change in IC50” value (Table 12, V052943, genotype 10I + 90M) was 2.2 fold, the “Fold change in IC50” value (Table 12, V052944, genotype 10I + 90M) was 1.4 fold and the “Fold change in IC50” value (Table 12, V052945, genotype 77I + 90M) was 3.0 fold. The “Fold change in IC50” value (Table 12, V052946, genotype 71V + 90M) was 3.0 fold, the “Fold change in IC50” value (Table 12, V052947, genotype 10I + 77I + 90M) was 8.2 fold and the “Fold change in IC50” value (Table 12, V052948, genotype 10I + 71V + 90M) was 9.0 fold. For the same molecule, the “Fold change in IC50” value (Table 12, V052949, genotype 10I + 71V + 77I + 90M) was 8.6 fold, the “Fold change in IC50” value (Table 12, V052950, genotype 33F) was 1.0 fold and the “Fold change in IC50” value (Table 12, V052951, genotype 33F + 77I) was 5.2 fold. For the same molecule, the “Fold change in IC50” value (Table 12, V052953, genotype 10I + 33F + 77I) was 0.9 fold, the “Fold change in IC50” value (Table 12, V052954, genotype 33F + 77I + 90M) was 5.9 fold and the “Fold change in IC50” value (Table 12, V052955, genotype 33F + 71V + 90M) was 36.6 fold. The “Fold change in IC50” value (Table 12, V052977, genotype 10I + 33F + 54M) was 3.8 fold, the “Fold change in IC50” value (Table 12, V052978, genotype 10I + 33F + 54M + 71V + 90M) was 29.1 fold and the “Fold change in IC50” value (Table 12, V052979, genotype 10I + 54M) was 3.8 fold. For the same molecule, the “Fold change in IC50” value (Table 12, V052980, genotype 10I + 54M + 90M) was 7.0 fold, the “Fold change in IC50” value (Table 12, V052981, genotype 10I + 54M + 71V + 90M) was 8.7 fold and the “Fold change in IC50” value (Table 12, V052982, genotype 10I + 54M + 71V + 77I + 90M) was 10.1 fold. For the same molecule, the “Fold change in IC50” value (Table 12, V053832, genotype 10I + 33F) was 1.6 fold.
